Measured values as given in patent US20240165062A1, “COMPOSITION FOR INCREASING MUSCLE” (YUKI GOSEI KOGYO CO., LTD., priority 2022, published 2024).

What was measured:
[1] = system: MyHCIIb gene in C2C12 cells; conditions: differentiated C2C12 cells, β-alanine 1 mM and 10 mM for 2 days, FIG. 4
Method: (§1) FIG. 4 is graphs showing the mRNA expressions of MyHCI (slow muscle)(A), MyHCIIa (fast muscle)(B), MyHCIIx (fast muscle)(C), and MyHCIIb (fast muscle) (D) measured by RT-qPCR in the C2C12 cells wherein the differentiated C2C12 cells were then treated by addition of 0.5, 1, or 10 (mM) of β-alanine for 2 days.
(§2) In this example, β-alanine was added to C2C12 cells and the expression of MyHCI (slow muscle marker), MyHCIIa (fast muscle marker), MyHCIIb (fast muscle marker), and MyHCIIx (fast muscle marker) genes were examined.
(§3) C2C12 cells were seeded in 6-well plates at a concentration of 2.0×10^5 cells/mL, and after 48 hours the medium was replaced with DMEM medium containing 2% Horse Serum (HS) (Thermo Fisher Scientific) to induce differentiation. Further, after 24 hours, the medium was replaced with DMEM medium containing 2% HS. The medium was changed every 2 days thereafter, and further the medium changes and the additions of β-alanine (0.5 mM, 1 mM, or 10 mM) were conducted on the 8th and 9th day after seeding. The cells on 10th day after seeding were used for the experiments. For controls, 1×PBS was added at the same volume as the amount of β-alanine.
(§4) Total RNA preparation and RT-qPCR were performed according to Example 1.

[2] = system: MyHCIIa gene in C2C12 cells; conditions: differentiated C2C12 cells, β-alanine 0.5 mM, 1 mM and 10 mM for 2 days, FIG. 4
Method: as §1, §2, §3, §4

[3] = system: MyHCIIx gene in C2C12 cells; conditions: differentiated C2C12 cells, β-alanine 1 mM and 10 mM for 2 days, FIG. 4
Method: as §1, §2, §3, §4

[4] = system: MyHCI gene in C2C12 cells; conditions: differentiated C2C12 cells, β-alanine 0.5 mM, 1 mM and 10 mM for 2 days, FIG. 4
Method: as §1, §2, §3, §4

[5] = system: MyHCIIb gene in C2C12 cells; conditions: β-alanine added twice at 24 h interval, vs 1×PBS control, FIG. 1
Method: as §2
(§5) High Pure RNA Isolation Kit (Roche, Basel, Switzerland) was used for total RNA preparation. C2C12 cells were seeded at a concentration of 5.0×10^4 cells/mL in 5 mL Dish. After 24 hours of incubation, β-alanine was added. 1×PBS was added to the control cells at the same volume as the added amount of β-alanine. Twenty-four hours after the addition of 3-alanine, sample was secondary added. After 24 hours of incubation, the culture supernatant was aspirated off. After washing the cells twice with 1×PBS, 1×PBS 200 μL/dish and […] of Lysis/-binding buffer included in High Pure RNA Isolation Kit were added to the entire dish, and the total amount was collected in a 1.5-mL tube. The collected samples were suspended using a vortex mixer for 60 seconds. The filter tube and the collection tube in the kit were assembled, the sample solution was added to the filter tube, and centrifuged at 4° C., 9200×g for 15 seconds. The liquid drained into the collection tube was discarded, and the filter tube and collection tube were assembled again. In a 1.5-mL tube, 90 μL of DNase Incubation Buffer per sample and 10 μL of DNase I per sample were mixed. The mixture was added to the filter tubes and incubated at room temperature for 15 minutes. After incubation, Wash buffer I (500 μL) was added to the filter tubes and centrifuged at 4° C., 9200×g for 15 seconds.

[6] = system: MyHCIIa gene in C2C12 cells; conditions: β-alanine added twice at 24 h interval, vs 1×PBS control, FIG. 1
Method: as §2, §5

[7] = system: MyHCIIx gene in C2C12 cells; conditions: β-alanine added twice at 24 h interval, vs 1×PBS control, FIG. 1
Method: as §2, §5

[8] = system: MyHCI gene in C2C12 cells; conditions: β-alanine added twice at 24 h interval, vs 1×PBS control, FIG. 1
Method: as §2, §5

C2C12 cells = conditions: β-alanine 0.5 mM or 1.0 mM every 2 days, 9 days from induction of differentiation, FIG. 3
MyoD gene in C2C12 cells = conditions: vs 1×PBS control, FIG. 2

**Q.** What does the source list for `NCCC(=O)O` [β-alanine]?
**A.** MyHCIIb (fast muscle) mRNA expression [1]: significantly increased; MyHCIIa (fast muscle marker) gene expression [2]: concentration-dependent enhancement; MyHCIIx (fast muscle) mRNA expression [3]: significantly increased; MyHCI (slow muscle marker) mRNA expression [4]: significantly increased; expression of the fast muscle marker MyHCIIb [5]: increased; expression of the fast muscle marker MyHCIIa [6]: increased; expression of the fast muscle marker MyHCIIx [7]: increased; expression of the slow muscle marker MyHCI [8]: increased; differentiation of myoblasts into myotube cells (C2C12 cells): promoted; number of myotubular cells (C2C12 cells): increased; ratio of slow muscle cells (slow muscle area / myotube area) (C2C12 cells): increased as the amount of β-alanine increased; expression of MyoD, a transcriptional regulator of muscle differentiation (MyoD gene in C2C12 cells): increased
